# Measurements: ChEMBL document CHEMBL5316299, “Discovery of Novel Drug-like PHGDH Inhibitors to Disrupt Serine Biosynthesis for Cancer Therapy” (J Med Chem, 2023)
# Tests used:
# [1] = target: T1, D-3-phosphoglycerate dehydrogenase (Homo sapiens, UniProt O43175); test: Inhibition of PHGDH (unknown origin) preincubated for 30 mins followed by substrate addition and measured after 5 mins
# T1 sequence (O43175 whole entry): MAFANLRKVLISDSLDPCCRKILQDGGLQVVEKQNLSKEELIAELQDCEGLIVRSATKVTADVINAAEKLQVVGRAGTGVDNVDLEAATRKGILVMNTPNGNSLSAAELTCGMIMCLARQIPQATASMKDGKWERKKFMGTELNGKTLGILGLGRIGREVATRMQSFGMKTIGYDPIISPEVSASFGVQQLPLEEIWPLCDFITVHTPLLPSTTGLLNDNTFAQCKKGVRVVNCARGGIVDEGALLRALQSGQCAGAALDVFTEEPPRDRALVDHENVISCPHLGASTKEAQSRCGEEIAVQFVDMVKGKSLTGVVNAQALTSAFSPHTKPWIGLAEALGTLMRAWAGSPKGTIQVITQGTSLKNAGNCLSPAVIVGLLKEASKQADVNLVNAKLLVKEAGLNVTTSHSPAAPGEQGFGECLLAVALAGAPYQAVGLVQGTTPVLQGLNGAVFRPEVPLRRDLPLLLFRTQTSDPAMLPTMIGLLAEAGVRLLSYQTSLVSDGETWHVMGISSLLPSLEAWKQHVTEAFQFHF
# MDA-MB-468 = test: Antiproliferative activity against human MDA-MB-468 cells expressing PHGDH assessed as reduction in cell viability measured for 72 hrs by CCK-8 assay; type: functional, cell-based; details: MDA-MB-468, 72 h
# MCF-10A = test: Antiproliferative activity against human MCF-10A cells assessed as reduction in cell viability measured for 72 hrs by CCK-8 assay; type: functional, cell-based
# [2] = Microsomal stability in human liver microsomes assessed as half life measured upto 60 mins by HPLC-MS/MS analysis; type: ADME, Microsome
# [3] = Microsomal stability in rat liver microsomes assessed as half life measured upto 60 mins by HPLC-MS/MS analysis; type: ADME, Microsome
# [4] = Microsomal stability in mouse liver microsomes assessed as half life measured upto 60 mins by HPLC-MS/MS analysis; type: ADME, Microsome
# [5] = Microsomal stability in human liver microsomes assessed as intrinsic clearance measured upto 60 mins by HPLC-MS/MS analysis; type: ADME, Microsome; details: 1 h
# [6] = Microsomal stability in rat liver microsomes assessed as intrinsic clearance measured upto 60 mins by HPLC-MS/MS analysis; type: ADME, Microsome; details: 1 h
# [7] = Microsomal stability in mouse liver microsomes assessed as intrinsic clearance measured upto 60 mins by HPLC-MS/MS analysis; type: ADME, Microsome; details: 1 h
# [8] = target: T1, D-3-phosphoglycerate dehydrogenase; test: Competitive inhibition of PHGDH (unknown origin) assessed as inhibition constant using NAD+ as substrate preincubated for 30 mins followed by substrate addition and measured after 5 mins by Lineweaver-Burk plot analysis
# [9] = target: T1, D-3-phosphoglycerate dehydrogenase; test: Competitive inhibition of PHGDH (unknown origin) assessed as inhibition constant using 3-PG as substrate preincubated for 30 mins followed by substrate addition and measured after 5 mins by Lineweaver-Burk plot analysis
# [10] = target: T1, D-3-phosphoglycerate dehydrogenase; test: Binding affinity to PHGDH (unknown origin) assessed as dissociation constant incubated for 60 mins by microscale thermophoresis analysis
# [11] = target: T1, D-3-phosphoglycerate dehydrogenase; test: Binding affinity to his-tagged PHGDH ([…] residues) (unknown origin) assessed as dissociation constant by SPR analysis
# [12] = target: T1, D-3-phosphoglycerate dehydrogenase; test: Inhibition of wild type PHGDH (unknown origin) preincubated for 30 mins followed by substrate addition and measured after 5 mins
# [13] = target: D-3-phosphoglycerate dehydrogenase (Homo sapiens, UniProt O43175, D175A); test: Inhibition of PHGDH D175A mutant (unknown origin) preincubated for 30 mins followed by substrate addition and measured after 5 mins
# BT-20 = test: Antiproliferative activity against human BT-20 cells expressing PHGDH assessed as reduction in cell viability measured for 72 hrs by CCK-8 assay; type: functional, cell-based; details: BT-20, 72 h
# PC-9 [14] = test: Antiproliferative activity against human PC-9 cells expressing PHGDH assessed as reduction in cell viability measured for 72 hrs by CCK-8 assay; type: functional, cell-based; details: PC-9, 72 h
# NCI-H1975 = test: Antiproliferative activity against human NCI-H1975 cells expressing PHGDH assessed as reduction in cell viability measured for 72 hrs by CCK-8 assay; type: functional, cell-based; details: NCI-H1975, 72 h
# HCT-116 = test: Antiproliferative activity against human HCT-116 cells expressing PHGDH assessed as reduction in cell viability measured for 72 hrs by CCK-8 assay; type: functional, cell-based; details: HCT-116, 72 h
# HCC827 = test: Antiproliferative activity against human HCC827 cells expressing PHGDH assessed as reduction in cell viability measured for 72 hrs by CCK-8 assay; type: functional, cell-based; details: HCC827, 72 h
# NCI-H23 = test: Antiproliferative activity against human NCI-H23 cells assessed as reduction in cell viability measured for 72 hrs by CCK-8 assay; type: functional, cell-based; details: NCI-H23, 72 h
# PANC-1 = test: Antiproliferative activity against human PANC-1 cells assessed as reduction in cell viability measured for 72 hrs by CCK-8 assay; type: functional, cell-based; details: PANC-1, 72 h
# MDA-MB-231 = test: Antiproliferative activity against human MDA-MB-231 cells assessed as reduction in cell viability measured for 72 hrs by CCK-8 assay; type: functional, cell-based; details: MDA-MB-231, 72 h
# ZR-75-1 = test: Antiproliferative activity against human ZR-75-1 cells assessed as reduction in cell viability measured for 72 hrs by CCK-8 assay; type: functional, cell-based; details: ZR-75-1, 72 h
# MCF7 = test: Antiproliferative activity against human MCF7 cells assessed as reduction in cell viability measured for 72 hrs by CCK-8 assay; type: functional, cell-based; details: MCF7, 72 h
# [15] = AUClast in ICR mouse at 1 mg/kg, iv measured for 0.05 to 24 hrs by UPLC-MS/MS analysis; type: ADME, organism-based; set-up: time upper 24 hrs, dose 1 mg/kg, time lower 0.05 hrs, route iv; details: in vivo
# [16] = AUClast in ICR mouse at 3 mg/kg, po measured for 0.25 to 24 hrs by UPLC-MS/MS analysis; type: ADME, organism-based; set-up: dose 3 mg/kg, time 0.25-24 hrs, route po; details: in vivo
# [17] = Half life in ICR mouse at 1 mg/kg, iv measured for 0.05 to 24 hrs by UPLC-MS/MS analysis; type: ADME, organism-based; details: in vivo, time 0.05-24 hrs
# [18] = Half life in ICR mouse at 3 mg/kg, po measured for 0.25 to 24 hrs by UPLC-MS/MS analysis; type: ADME, organism-based; details: in vivo, time 0.25-24 hrs
# [19] = Tmax in ICR mouse at 3 mg/kg, po measured for 0.25 to 24 hrs by UPLC-MS/MS analysis; type: ADME, organism-based; details: in vivo, time 0.25-24 hrs
# [20] = Observed clearance in ICR mouse at 1 mg/kg, iv measured for 0.05 to 24 hrs by UPLC-MS/MS analysis; type: ADME, organism-based; details: in vivo, time 0.05-24 hrs
# [21] = Cmax in ICR mouse at 3 mg/kg, po measured for 0.25 to 24 hrs by UPLC-MS/MS analysis; type: ADME, organism-based; set-up: dose 3 mg/kg, time 0.25-24 hrs, route po; details: in vivo
# [22] = Oral bioavailability in ICR mouse at 3 mg/kg measured for 0.25 to 24 hrs by UPLC-MS/MS analysis; type: ADME, organism-based; details: in vivo, time 0.25-24 hrs
# [23] = Drug exposure in BALB/c nude mouse tumor at 50 mg/kg, ip measured for 0.5 to 4 hrs; type: ADME, organism-based; details: in vivo, time 0.5-4 hrs
# [24] = Drug exposure in BALB/c nude mouse plasma at 25 mg/kg, ip measured for 0.5 to 4 hrs; type: ADME, organism-based; details: in vivo, time 0.5-4 hrs
# PC-9 [25] = test: Antitumor activity against human PC-9 cells xenografted in BALB/c nude mouse assessed as tumor growth inhibition at 12.5 mg/kg, ip administered every day for 31 days by digital vernier caliper analysis; type: functional; details: time 31 day
# PC-9 [26] = test: Antitumor activity against human PC-9 cells xenografted in BALB/c nude mouse assessed as tumor growth inhibition at 25 mg/kg, ip administered every day for 31 days by digital vernier caliper analysis; type: functional; details: time 31 day
# [27] = Toxicity in BALB/c nude mouse xenografted with human PC-9 cells assessed as loss of body weight at 25 mg/kg, ip administered every day for 31 days; type: organism-based; details: in vivo, 744 h, time 31 day
# [28] = Toxicity in BALB/c nude mouse xenografted with human PC-9 cells assessed as abnormalities in kidney at 25 mg/kg, ip administered every day for 31 days by H and E staining based assay; type: organism-based; details: in vivo, 744 h, time 31 day
# [29] = Toxicity in BALB/c nude mouse xenografted with human PC-9 cells assessed as abnormalities in lung at 25 mg/kg, ip administered every day for 31 days by H and E staining based assay; type: organism-based; details: in vivo, 744 h, time 31 day
# [30] = Toxicity in BALB/c nude mouse xenografted with human PC-9 cells assessed as abnormalities in liver at 25 mg/kg, ip administered every day for 31 days by H and E staining based assay; type: organism-based; details: in vivo, 744 h, time 31 day
# D-3-phosphoglycerate dehydrogenase (Homo sapiens, UniProt O43175, D175A), sequence (O43175 2-533 D175A limits assumed): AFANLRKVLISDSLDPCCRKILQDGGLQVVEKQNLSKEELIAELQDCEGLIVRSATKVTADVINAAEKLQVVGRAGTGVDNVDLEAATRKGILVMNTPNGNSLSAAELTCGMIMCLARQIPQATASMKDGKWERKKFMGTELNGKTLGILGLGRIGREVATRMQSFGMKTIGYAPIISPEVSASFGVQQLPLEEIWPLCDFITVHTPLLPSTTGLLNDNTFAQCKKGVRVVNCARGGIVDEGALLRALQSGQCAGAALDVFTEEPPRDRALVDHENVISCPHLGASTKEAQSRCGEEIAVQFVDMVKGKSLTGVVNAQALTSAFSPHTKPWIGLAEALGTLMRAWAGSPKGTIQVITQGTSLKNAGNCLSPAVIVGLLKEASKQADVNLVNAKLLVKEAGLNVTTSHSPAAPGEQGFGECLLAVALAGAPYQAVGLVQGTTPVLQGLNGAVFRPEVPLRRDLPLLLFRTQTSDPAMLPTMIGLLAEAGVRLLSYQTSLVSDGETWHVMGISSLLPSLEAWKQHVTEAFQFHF
compound,measurement,setting,value
CC(=O)c1cccc(NS(=O)(=O)c2ccc(C(=O)Nc3nc(-c4cccc(F)c4)cs3)cc2)c1,IC50,[1],2.8 µM
same,IC50,MDA-MB-468,5.3 µM
same,IC50,MCF-10A,52.9 µM
same,half-life,[2],1.77 h
same,half-life,[3],0.618 h
same,half-life,[4],1.45 h
same,CLH,[5],19.8 mL/min/g
same,CLH,[6],56.6 mL/min/g
same,CLH,[7],24.1 mL/min/g
same,Ki,[8],15.2 µM
same,Ki,[9],14.9 µM
same,Kd,[10],2.33 µM
same,Kd,[11],2.48 µM
same,IC50,[12],2.8 µM
same,IC50,[13],> 50 µM
same,IC50,BT-20,5.3 µM
same,IC50,PC-9 [14],3.5 µM
same,IC50,NCI-H1975,6.2 µM
same,IC50,HCT-116,9.6 µM
same,IC50,HCC827,21.6 µM
same,IC50,NCI-H23,28.6 µM
same,IC50,PANC-1,36.6 µM
same,IC50,MDA-MB-231,37.1 µM
same,IC50,ZR-75-1,38.3 µM
same,IC50,MCF7,39.2 µM
same,AUClast,[15],38358 ng·mL·h
same,AUClast,[16],94386 ng·mL·h
same,half-life,[17],4.94 h
same,half-life,[18],4.74 h
same,Tmax,[19],3.33 h
same,clearance,[20],0.48 mL/min/kg
same,Cmax,[21],8840 ng/mL
same,bioavailability,[22],82%
same,Drug uptake,[23],Active
same,concentration,[24],30.8 µM
same,TGI,PC-9 [25],41.4%
same,TGI,PC-9 [26],68.9%
same,Activity,[27],Non-Toxic
same,Activity,[28],Non-Toxic
same,Activity,[29],Non-Toxic
same,Activity,[30],Non-Toxic
